Read-outs that look alike come from different tables or passages of the source.
Experiments:
HeLa cells [1] = test: In vitro assay system for regulation of cell death by the Bcl-2 family (Bax-induced cell death, electroporation, beta-galactosidase reporter); format: cell-based, Human; conditions: for cell viability as compared to controls: expression plasmid transfected alone by electroporation, 18 hours post-transfection
From the text: This assay is based on transient transfection of cultured cells (e.g., HeLa cells, SH-SY5Y neuroblastoma cells. PC12, pheochromocytoma cells, 293 kidney cells, primary neuronal cells etc.), via electroporation or cationic-lipid-mediated transfection, by an expression vector, harboring a reporter gene (e.g. the gene encoding for beta-galactosidase, or the gene encoding for luciferase). Based on the consideration that gene expression requires high level of function and integrity of cellular systems, a direct correlation can be drawn between the activity of the protein encoded by the reporter gene, and the survival rates of the transfected cells. The reporter gene is co-transfected with a second expression vector, carrying either the bcl-2 or bax genes, therefore affecting the cellular apoptotic threshold towards life or death, respectively. In addition, transfection of cells with a combination of both bcl-2 and bax genes is performed, to examine the activity of each of these two proteins in opposing the death-inhibitory or promoting-effect of the other, respectively.
(§1) a. Cell cultures: • 1. HeLa cells: Human cervical carcinoma cells (HeLa) were grown in Dulbecco's modified Eagle's medium (DMEM), supplemented with 10% fetal calf serum (FCS) and 1% penicillin-streptomycin-Nystatin solution (Biological Industries, Israel), and 1% L-Glutamine solution (2 mM, biological Industries, Israel). Cells were grown in monolayer at 37° C. in 5% CO2. • 2. Kidney 293 cells (T): Human embryonic kidney 293 cells were grown in the conditions described for the HeLa cells.
b. Models of Apoptosis: • Three model systems of cell death were used: • 1. Apoptosis induced by dopamine: Exposure of cells to dopamine at 100-500 micromolar for 24 hours induces cell death characteristic of apoptosis (Ziv I, et al., Neurosci Lett 170:136-140, 1994; Offen D, et al., Biochim Biophys Acta 1268:171-177, 1995; Masserano J M, et al., Mol Pharmacol 50:1309-1315, 1996; Shirvan A, et al., J. Neurochem 69:539-549, 1997; Corona V., et al., J. Neurochem 69:1870-1881, 1997; Velez-Pardo C, et al., Pharmacol Toxicol 80:76-84, 1997; Shinkai T, et al., J Neurosci Res. 393-399, 1997; Simantov R, et al., Neuroscience 74:39-50, 1996; Gabby M, et al., Neuropharmacology 35:571-578, 1996). […] Apoptosis induced by Bax. This model utilizes an in vitro assay system for regulation of cell death by the Bcl-2 family of proteins: Cells were grown as described above in example 3a. Cells from log phase of growth were harvested using trypsin/EDTA and resuspended at a density of 5.0×10^6 cells/ml in 400 μl PBS. Cell suspension was then transferred to electroporation chambers containing a marker plasmid (pCDNA/Lac z) encoding beta-galactosidase as a reporter gene (10 μg)+a control plasmid (pCDNA), to bring total plasmid quantity to 23 micrograms+one of the following regimens: • 1. An expression plasmid, encoding Bcl-2 (0.42 μg) • 2. An expression plasmid, encoding Bax (0.42 μg). • 3. Bcl-2-encoding plasmid+Bax-encoding plasmid (0.42 μg each). • 4. Test compound, or an expression plasmid encoding for the test peptide+either Bcl-2-encoding plasmid or Bax-encoding plasmid or both. • 5. Control: only the marker plasmid.
After one minute of incubation, electroporation was performed at 1050 μF and 220 V for a duration of 10-30 ms, using an Equibio gene pulser. Cells from the cuvettes were then pooled into a complete medium with 10% FCS, and 1×10^6 cells were aliquoted into 3.5 cm plates. At 18 hours post-transfection, cell viability was assessed through measurement of beta-galactosidase activity by standard methods (Sambrook, Fritch, Maniatis, Molecular cloning; A laboratory manual, Cold Spring Harbour Laboratory Press, pp 16.66, 1989). OD values were expressed as percent of control, and statistical significance was evaluated by appropriate parametric or non-parametric statistical tests.
Methods: An expression plasmid, encoding the DIP1 (synthesized as described above in Example 2) was used. […]

HeLa cells [2] = test: Dopamine-induced cell death in HeLa cells (beta-galactosidase reporter viability); format: cell-based, Human; conditions: 18 hours; for cell survival rate: P<0.001
Protocol: (§2) Models of Apoptosis: • Three model systems of cell death were used: • 1. […] Apoptosis induced by Bax. This model utilizes an in vitro assay system for regulation of cell death by the Bcl-2 family of proteins: Cells were grown as described above in example 3a. Cells from log phase of growth were harvested using trypsin/EDTA and resuspended at a density of 5.0×10^6 cells/ml in 400 μl PBS. Cell suspension was then transferred to electroporation chambers containing a marker plasmid (pCDNA/Lac z) encoding beta-galactosidase as a reporter gene (10 μg)+a control plasmid (pCDNA), to bring total plasmid quantity to 23 micrograms+one of the following regimens: • 1. An expression plasmid, encoding Bcl-2 (0.42 μg) • 2. An expression plasmid, encoding Bax (0.42 μg). • 3. Bcl-2-encoding plasmid+Bax-encoding plasmid (0.42 μg each). • 4. Test compound, or an expression plasmid encoding for the test peptide+either Bcl-2-encoding plasmid or Bax-encoding plasmid or both. • 5. Control: only the marker plasmid.
Cell viability was then evaluated by the measurement of the beta-galactosidase activity, as specified above.
Synthetic DIP1 was introduced into HeLa cells with a beta-galactosidase reporter plasmid by electroporation. […] Cell viability was then evaluated by measurement of the beta-galactosidase activity.

[3] = system: embryonic kidney 293T cells; test: Cell-killing effect of Bax on embryonic kidney 293T cells (beta-galactosidase reporter); format: cell-based, Human; conditions: expression plasmids encoding Bax and DIP1, Superfect transfection, 18 hours
Protocol: as §1
Methods: Human embryonic kidney 293T cells were grown as specified in Example 3.a. Cells were co-transfected using the Superfect Transfection Kit (Quiagen), with 5 μg total DNA of the following effectors: pCDNA/Lac-z reporter plasmid and one of the following:
• 1). Expression plasmid encoding DIP1. • 2). Expression plasmid encoding Bax. • 3). Expression plasmids, encoding Bax and DIP1.
After 18 hours, the cells were harvested for beta-galactosidase activity assay.
Human embryonic kidney 293T cells were co-transfected by […] with a reporter plasmid encoding beta-galactosidase, in combination with either an expression plasmid encoding DIP1; an expression plasmid encoding Bax; or expression plasmids encoding Bax and DIP1. Cell viability was evaluated after 18 hours, by measurement of beta-galactosidase activity.

HeLa cells [4] = conditions: 18 hours
Protocol: as §2
Cell viability was then evaluated by determining beta-galactosidase activity.

“Bcl-2: death-inhibitory protein, expressed from a transfected expression plasmid” was tested, and the “cell-killing effect of Bax on co-transfection” value (HeLa cells [1]; co-transfection with Bax-encoding plasmid, 18 hours) was “markedly counteracted” and the “cell viability as compared to controls” value (HeLa cells [1]) was “increases cell viability”.

In the case of “H-FELRYRRAF-OH [DIP1, Phe-Glu-Leu-Arg-Tyr-Arg-Arg-Ala-Phe]”, the cell survival rate (HeLa cells [2]; synthetic DIP1 by electroporation + dopamine 150 μM) is reported as 75.4+9.0%, the cell survival rate (HeLa cells [2]; synthetic DIP1 by electroporation + dopamine 300 μM) is reported as 40.2+8.0% and the cell survival rate (HeLa cells [1]; co-transfection of DIP1-encoding plasmid with Bax-encoding plasmid, 18 hours, p<0.001) is reported as 71.4 ± 9.4 % of control. For the same compound, the “cell viability as compared to controls” value (HeLa cells [1]) was “markedly enhanced cell viability”, the “counteracting Bax toxicity” value [3] was “markedly active in counteracting Bax toxicity” and the cell survival rate (HeLa cells [4]; synthetic DIP1 by electroporation + hydrogen peroxide 100 μM, p<0.001) was 53.3±8.8%. The cell survival rate (HeLa cells [4]; synthetic DIP1 by electroporation + hydrogen peroxide 200 μM, p<0.001) was 33.4±3.7%.

With NCCc1ccc(O)c(O)c1 [dopamine, reference compound] the cell survival (HeLa cells [2]; dopamine 150 μM alone) was 30.8 ± 6.0% of control and the cell survival (HeLa cells [2]; dopamine 300 μM alone) was 8.4 ± 7.0% of control.

In the case of “Bax: death-inducing Bcl-2 family protein, expressed from a transfected expression plasmid”, the cell survival rate (HeLa cells [1]; Bax-encoding plasmid alone, 18 hours) is reported as 37.0 ± 2.2% and the “cell viability as compared to controls” value (HeLa cells [1]) is reported as “marked death-inducing effect”.

In the case of OO [hydrogen peroxide, reference compound], the cell survival rate (HeLa cells [4]; hydrogen peroxide 100 μM alone, mean±SD) is reported as 20.4±2.8% of control and the cell survival rate (HeLa cells [4]; hydrogen peroxide 200 μM alone, mean±SD) is reported as 5.8±2.1% of control.
